The target in this assay is T1, Membrane-bound ghrelin O-acyltransferase MBOAT4 (Homo sapiens) (UniProt Q96T53).
T1 sequence (whole entry): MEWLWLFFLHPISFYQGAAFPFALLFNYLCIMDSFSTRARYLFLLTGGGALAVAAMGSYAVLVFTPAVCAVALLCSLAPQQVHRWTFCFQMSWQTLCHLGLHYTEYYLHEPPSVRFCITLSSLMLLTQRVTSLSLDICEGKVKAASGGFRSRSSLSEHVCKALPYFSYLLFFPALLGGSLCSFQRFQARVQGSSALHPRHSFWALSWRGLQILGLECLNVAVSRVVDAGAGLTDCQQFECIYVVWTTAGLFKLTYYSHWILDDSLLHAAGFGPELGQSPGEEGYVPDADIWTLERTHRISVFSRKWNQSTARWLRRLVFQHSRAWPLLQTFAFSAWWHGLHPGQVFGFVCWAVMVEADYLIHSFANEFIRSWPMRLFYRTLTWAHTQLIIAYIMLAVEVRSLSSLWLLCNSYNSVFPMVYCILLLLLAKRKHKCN
The assay is described as follows: Inhibition of human GOAT expressed in baculovirus infected Sf9 cells at 10 uM using octanoyl-CoA and ghrelin-biotin as substrate preincubated for 20 mins followed by substrate addition and measured after = > 1 hr by HTRF assay relative to control. The conditions noted are these: time hrs >=1.
One may read the inhibition as the drop in the measured response relative to a control, in per cent. For `Cn1nc(C(F)(F)F)cc1COc1ccc2c(CC(=O)O)csc2c1`, the inhibition worked out at 98.2%.

With `CCC(=O)NCC[C@@H]1COc2cc(OCc3ccc(Cl)cc3Cl)ccc21`, the inhibition turned out to be 59%.

Turning to `O=C(O)C1(CO)COc2cc(OCc3ccc(Cl)cc3Cl)ccc21` (stereo not given), the inhibition worked out at 81%.

Take `Cc1nc(C(F)(F)F)ccc1COc1cc(Cl)c2c(CC(=O)O)csc2c1`: the inhibition was 101%.

Consider `COC(=O)Cc1csc2c(F)c(OCc3ccc(C(F)(F)F)nc3C)cc(Cl)c12`, for which the inhibition worked out at 88.6%.

As to `O=C(O)C[C@@H]1COc2cc(OCc3ccc(Cl)cc3Cl)ccc21`, the inhibition came to 93%.

As to `COC(=O)Cc1csc2c(Cl)c(OCc3ccc(C(F)(F)F)nc3C)cc(Cl)c12`, the inhibition is 88.1%.

As to `COC(=O)Cc1coc2c(C)c(OCc3ccc(C)nc3C)cc(C)c12`, the inhibition amounted to 92.7%.

On to `Cn1nc(C(F)(F)F)cc1COc1cc(F)c2c(CC(=O)O)csc2c1`, for which the inhibition amounted to 104%.

As for `Cc1nc(C(F)(F)F)ccc1COc1cc(C)c2c(CC(=O)O)csc2c1F`, the inhibition was determined as 106%.

On to `CCOC(=O)CNC(=O)Cc1csc2cc(OCc3ccc(Cl)cc3Cl)ccc12`, for which the inhibition was found to be 56%.

On to `CCOC(=O)Cc1csc2cc(OCc3ccc(Cl)cc3Cl)ccc12`, for which the inhibition was found to be 69%.

For `CC(=O)NCCc1coc2cc(OCc3ccc(Cl)cc3Cl)ccc12`, the inhibition was determined as 73%.

On to `Cc1ccc(COc2cc(Cl)c3c(CC(=O)O)csc3c2)c(C)n1`, for which the inhibition was 107%.

For `COC(=O)Cc1csc2c(Cl)c(OCc3cc(C(F)(F)F)nn3C)cc(Cl)c12`, the inhibition stood at 92.7%.

Consider `Cc1nc(C(F)(F)F)ncc1COc1ccc2c(CC(=O)O)csc2c1`, for which the inhibition was 97.3%.

On to `COC(=O)Cc1csc2cc(OCc3ccc(C(F)(F)F)nc3C)cc(Cl)c12`, for which the inhibition is 91.6%.

Consider `O=C(O)C[C@H]1COc2cc(OCc3ccc(Cl)cc3Cl)ccc21`, for which the inhibition was found to be 86%.

On to `CCOC(=O)Cc1csc2cc(OCc3cc(C(F)(F)F)nn3C)ccc12`, for which the inhibition came out at 88.9%.

In the case of `COC(=O)Cc1csc2cc(OCc3ccc(C(F)(F)F)nc3C)cc(F)c12`, the inhibition was 94.9%.

`O=C(O)Cc1csc2cc(S(=O)(=O)Cc3ccc(Cl)cc3Cl)ccc12`: the inhibition was 83%.

As for `Cn1nc(C(F)(F)F)cc1COc1cc(Cl)c2c(CC(=O)O)csc2c1`, the inhibition was determined as 105%.

In the case of `Cc1c(OCc2ccc(Cl)cc2Cl)cc(C)c2c(CC(=O)O)coc12`, the inhibition was 103%.

With `O=C(O)Cc1csc2cc(SCc3ccc(Cl)cc3Cl)ccc12`, the inhibition was 99.3%.

As for `Cc1cc(OCc2ccc(Cl)cc2Cl)cc2scc(CC(=O)O)c12`, the inhibition stood at 103%.

As to `COC(=O)Cc1csc2cc(OCc3cc(C(F)(F)F)nn3C)cc(Cl)c12`, the inhibition is 100%.

With `Cc1ccc(COc2cc(C)c3c(CC(=O)O)coc3c2C)c(C)n1`, the inhibition came out at 102%.

As for `COC(=O)Cc1csc2cc(OCc3ccc(C(F)(F)F)nc3C)cc(C)c12`, the inhibition came to 93.8%.

On to `Cc1nc(C(F)(F)F)ccc1COc1ccc2c(CC(=O)O)csc2c1`, for which the inhibition was found to be 93.1%.

Take `Cc1ccc(COc2cc(C)c3c(c2C)OCC3CC(=O)O)c(C)n1` (stereo not given): the inhibition was 94.8%.

Take `COC(=O)Cc1c(C)sc2cc(OCc3ccc(C(F)(F)F)nc3C)cc(Cl)c12`: the inhibition was found to be 51.5%.

Take `Cc1sc2cc(OCc3cc(C(F)(F)F)nn3C)cc(Cl)c2c1CC(=O)O`: the inhibition is 106%.

In the case of `Cc1nc(C(F)(F)F)ccc1COc1cc(C)c2c(CC(=O)O)csc2c1C`, the inhibition is 105%.

As to `Cc1cc(OCc2cc(C(F)(F)F)nn2C)cc2scc(CC(=O)O)c12`, the inhibition stood at 104%.

Turning to `O=C(O)CC1CS(=O)(=O)c2cc(OCc3ccc(Cl)cc3Cl)ccc21` (stereo not given), the inhibition was determined as 79%.

Take `Cc1nc(C(F)(F)F)ccc1COc1cc(Cl)c2c(CC(=O)O)csc2c1F`: the inhibition came out at 106%.

For the compound `Cc1cc(OCc2cc(C(F)(F)F)nn2C)c(F)c2scc(CC(=O)O)c12`, the inhibition was determined as 104%.

For `Cc1nc(C(F)(F)F)ccc1COc1cc(C)c2c(CC(=O)O)csc2c1`, the inhibition came out at 99.2%.

Take `Cc1nc(C(F)(F)F)ccc1COc1cc(Cl)c2c(CC(=O)O)csc2c1Cl`: the inhibition was found to be 106%.

For the compound `COC(=O)Cc1csc2c(C)c(OCc3ccc(C(F)(F)F)nc3C)cc(C)c12`, the inhibition amounted to 62.8%.

As for `Cc1ccc(COc2ccc3c(CC(=O)O)csc3c2)c(C)n1`, the inhibition is 99%.

As to `Cn1nc(C(F)(F)F)cc1COc1cc(C(F)(F)F)c2c(CC(=O)O)csc2c1`, the inhibition is 103%.

Turning to `Cc1ccc(COc2cc(C(F)(F)F)c3c(CC(=O)O)csc3c2)c(C)n1`, the inhibition was determined as 103%.

As to `Cc1nc(C(F)(F)F)ncc1COc1cc(C)c2c(CC(=O)O)csc2c1`, the inhibition was 100%.

`COC(=O)Cc1csc2c(F)c(OCc3cc(C(F)(F)F)nn3C)cc(Cl)c12`: the inhibition turned out to be 98.9%.

`COC(=O)Cc1coc2c(C)c(OCc3ccc(Cl)cc3Cl)cc(C)c12`: the inhibition worked out at 68.7%.

With `O=C(O)CNC(=O)Cc1csc2cc(OCc3ccc(Cl)cc3Cl)ccc12`, the inhibition came to 95%.

As to `COC(=O)Cc1csc2c(F)c(OCc3cc(C(F)(F)F)nn3C)cc(C)c12`, the inhibition amounted to 96.1%.

Regarding `Cc1nc(C(F)(F)F)ccc1COc1cc(F)c2c(CC(=O)O)csc2c1`, the inhibition was determined as 102%.

`COC(=O)Cc1csc2cc(OCc3ccc(Cl)cc3Cl)cc(C)c12`: the inhibition was 84.4%.

In the case of `COCC1(C(=O)O)COc2cc(OCc3ccc(Cl)cc3Cl)ccc21` (stereo not given), the inhibition stood at 85%.

`Cc1ccc(CCc2ccc3c(CC(=O)O)csc3c2)c(C)n1`: the inhibition turned out to be 97.3%.

Turning to `O=C(O)Cc1csc2cc(OCc3ccc(Cl)cc3Cl)ccc12`, the inhibition stood at 99.2%.

On to `COC(=O)C(CO)NC(=O)Cc1csc2cc(OCc3ccc(Cl)cc3Cl)ccc12` (stereo not given), for which the inhibition is 86%.

With `O=C(O)Cc1coc2c(Cl)c(OCc3ccc(Cl)cc3Cl)ccc12`, the inhibition was found to be 100%.

On to `COC(=O)Cc1csc2cc(OCc3cc(C)nn3C)cc(C)c12`, for which the inhibition stood at 94.7%.

Regarding `COC(=O)Cc1csc2cc(OCc3ccc(C)nc3C)cc(Cl)c12`, the inhibition amounted to 96.5%.

In the case of `Cc1cc(OCc2ccc(Cl)cc2Cl)c(C)c2c1C(CC(=O)O)CO2` (stereo not given), the inhibition amounted to 96.2%.

On to `COC(=O)Cc1csc2cc(OCc3cc(C(F)(F)F)nn3C)cc(C)c12`, for which the inhibition was 95.2%.

On to `Cc1ccc(/C=C/c2ccc3c(CC(=O)O)csc3c2)c(C)n1`, for which the inhibition turned out to be 83.1%.

On to `COC(=O)Cc1csc2cc(OCc3cc(C(F)(F)F)nn3C)cc(F)c12`, for which the inhibition was 99.9%.

`Cc1cc(COc2cc(Cl)c3c(CC(=O)O)csc3c2)n(C)n1`: the inhibition worked out at 105%.

As to `CC(=O)NCC[C@@H]1COc2cc(OCc3ccc(Cl)cc3Cl)ccc21`, the inhibition worked out at 69%.

For `COC(=O)Cc1csc2cc(OCc3cc(C)nn3C)cc(Cl)c12`, the inhibition worked out at 97.4%.

Regarding `O=C(Cc1csc2cc(OCc3ccc(Cl)cc3Cl)ccc12)NC(CO)C(=O)O` (stereo not given), the inhibition worked out at 97%.

On to `Cn1nc(C(F)(F)F)cc1COc1cc(Cl)c2c(CC(=O)O)csc2c1F`, for which the inhibition turned out to be 107%.

On to `CCS(=O)(=O)NC(=O)Cc1csc2cc(OCc3ccc(Cl)cc3Cl)ccc12`, for which the inhibition was found to be 83.2%.

As to `O=C(O)Cc1csc2cc([S+]([O-])Cc3ccc(Cl)cc3Cl)ccc12` (stereo not given), the inhibition came out at 67%.

Consider `O=C(O)CC1CSc2cc(OCc3ccc(Cl)cc3Cl)ccc21` (stereo not given), for which the inhibition is 99%.

For the compound `Cc1nc(C(F)(F)F)ccc1COc1cc(Cl)c2c(CC(=O)O)c(C)sc2c1`, the inhibition came out at 103%.

Take `COC(=O)Cc1csc2c(F)c(OCc3ccc(C(F)(F)F)nc3C)cc(C)c12`: the inhibition stood at 94%.

Regarding `Cn1nc(C(F)(F)F)cc1COc1cc(Cl)c2c(CC(=O)O)csc2c1Cl`, the inhibition was found to be 105%.

Turning to `Cc1cc(COc2cc(C)c3c(CC(=O)O)csc3c2)n(C)n1`, the inhibition was found to be 95.6%.

On to `CCOC(=O)Cc1csc2cc(OCc3ccc(C)nc3C)ccc12`, for which the inhibition was 92.8%.

`COC(=O)Cc1c(C)sc2cc(OCc3cc(C(F)(F)F)nn3C)cc(Cl)c12`: the inhibition was 99.5%.
